Assay results as given in patent US6610289B2, “Mutated herpes simplex virus type 1 thymidine kinases and uses thereof” (The Board of Trustees of the University of Arkansas, priority 1998, dated 2003).

Assays:
HCT-116 cells = assay: MTT cell viability, sensitivity to GCV killing, HCT-116 cell lines expressing HSV-1 TKs; assay type: cell-based, human; details: HCT-116, GCV 0-5 μM, 4 days, FIG. 3B
Description: Cells were plated in triplicate and exposed to 0, 0.05, 0.5 or 5 μM GCV for four days. Cell viabilities were determined using MTT dye. […] FIG. 3A: NIH3T3 cell lines, FIG. 3B: HCT-116 cell lines; parental cells (noTK, dark bands); Asp125TK (Asp-#, brick band); Glu-125TK (Glu-#, cross-hatch bands); Asn-125TK (Asn-#, gray bands); wild-type HSV-1 TK (WT-#, striped bands).
A Moloney murine leukemia virus derived plasmid for the expression of HSV-TK, termed pLENTK, has been previously constructed (24). A unique BspEI-MluI restriction fragment within the HSV-TK sequence of pLENTK contains the Gln-125 mutation site. This fragment was removed from wild-type plasmid and replaced with the analogous fragments encoding each mutant. […] Along with wild-type HSV-1 TK plasmid, each mutant-TK plasmid was transfected individually into the murine fibroblast cell line, NIH 3T3, and the human colon tumor cell line, HCT-116, using lipofectin reagent (GIBCO/BRL) (2 μg plasmid, 14 μl lipid per 1×10^6 cells). Cells were maintained in RPMI 1640 media and selected with G418 (200 μg/ml for 2 weeks) as previously described (24). At least eight individual G418 resistant cell clones were picked and grown up for further characterization. Each clone was screened initially for growth inhibition by 25 μM GCV. Those clones that were sensitive were further analyzed for HSV-TK protein expression by Western blot analysis with a polyclonal, rabbit anti-HSV-TK antibody (a gift from Dr. Margaret Black). For each clone, cell numbers were normalized to 1×10^6, and equal protein loading was confirmed for each sample by gel staining. Blotted HSV-1 TK protein bands were visualized on film using ECL chromophore reagents (Amersham). For analysis of GCV sensitivity of different clones, NIH3T3 and HCT-116 cell sets were seeded in 96 well plates in 0.1 ml media (15,000 cells/well). The next day, a dose range of GCV (0.005 to 5 mM, n=3) was added in 0.1 ml media. After 4 days, MTT ([…]) was added for 1.5 hours, followed by DMSO solubilization of the cells and absorbance reading at 540 nm (25).
cDNA for each mutant was incorporated into a Moloney murine leukemia virus plasmid (24). The plasmids for wild-type HSV-1 TK and each mutant were individually transfected into either NIH3T3 cells or the human colon tumor cell line, HCT-116. Following drug selection in G418, individual cell clones were evaluated for sensitivity to GCV and relative levels of HSV-1 TK expression. Using an HSV-1 TK antibody and extracts normalized by protein and cell number, the relative expression levels of HSV-1 TK in each cell clone were determined.

NIH3T3 cells = assay: Metabolic labeling with [^3H]GCV, NIH3T3 cell clones; assay type: cell-based, murine; details: 3T3
Description: For metabolic labeling, cells (1-2×10^6) were labeled in triplicate with 2 μCi [^3H]GCV ([…]) for 18 hours, then nucleotides were extracted from pelleted cells in 0.2 ml 70% methanol at 4° C. for 15 minutes as previously described (21, 24). An aliquot of each methanol soluble supernatant was analyzed for radioactivity by scintillation counting. The methanol insoluble pellets, representative of a crude DNA fraction, were resuspended in 0.15 ml water and also counted for radioactivity. For deoxpyrimidines, cells were grown to confluency in 60 cm^2 plates, and either 2 μCi [^3H]thymidine (2 μM final) or 2 μCi [^3H]dC (10 μM final) were added for 1 or 2 hours respectively prior to extraction in 70% methanol. Methanol-soluble extracts were concentrated by evaporation under nitrogen, and separated on PEI-cellulose thin layer chromatography plates developed in 0.8 M LiCl for GCV or 0.35 M LiCl for thymidine/dC as previously described (21).
NIH3T3 fibroblasts and the human tumor cell line HCT-116 were transfected with wild-type HSV-1TK or with one of three site specific mutants of amino acid Gln-125. From a panel of multiple HSV-1TK expressing clones, a subset of clones from each cell line expressing wild-type HSV-1 TK, the Asn-125 HSV-1 TK mutant (Asn-125TK) and the Glu-125 HSV-1 TK mutant (Glu-125TK) were selected for comparatively equivalent levels of HSV-1 TK protein expression based on Western blot determinations. In this study, these two sets of HSV-1 TK-expressing NIH 3T3 and HCT-116 cell lines were evaluated for intracellular metabolism of [^3H]GCV, [^3H]thymidine, or [^3H]dC. Cells were labeled with [^3H]GCV for 18 hours, then nucleotides were extracted in ice-cold 70% methanol as previously described (21, 24). The data in Table 3 summarize the amount of total nucleotide metabolites isolated in the methanol-soluble extracts (pmol/10^6 cells) as well as the total amount of methanol-insoluble metabolites representative of incorporation into DNA. The Asn-125TK metabolizes GCV at (or near) equal levels to the wild-type HSV-TK in both cell lines. The methanol-insoluble data, while only a crude indicator of [^3H]GCV incorporation into DNA, reflects the numbers obtained with the soluble extracts. As compared with the non-HSV-TK-expressing HCT-116 cells and consistent with data in the previous study (24), minimal [^3H]GCV metabolism was detected in the Asp-125TK cells and these cells were not further evaluated.
The methanol-soluble metabolites were further separated into their constituent phosphorylated GCV metabolites by thin layer chromatography (21). As presented in Table 4, the predominant metabolite in each HSV-TK-expressing cell line was GCVTP. In both HCT-116 and NIH3T3 cell lines, the Asn-125TK cells indicated slightly higher levels of GCVTP as compared to wild-type HSV-1 TK cell lines. […] This difference in the levels of GCVTP in the two Glu-125TK expressing cell lines could explain the lack of sensitivity to GCV killing observed for the NIH3T3 Glu-125TK cell lines.

| Substance | Dose dependent cell killing by GCV (cell viability, MTT) (HCT-116 cells) | Dose dependent cell killing by GCV (cell viability, MTT) (HCT-116 cells; listed as Asn-125TK) | Phosphorylated metabolite GCVDP (NIH3T3 cells) [pmol/10^6 cells] | Phosphorylated metabolite GCVMP (NIH3T3 cells) [pmol/10^6 cells] | Phosphorylated metabolite GCVTP (NIH3T3 cells) [pmol/10^6 cells] | Dose dependent cell killing by GCV (cell viability, MTT) (HCT-116 cells; listed as Gln-125) | Dose dependent cell killing by GCV (cell viability, MTT) (HCT-116 cells; listed as wild-type) | Dose dependent cell killing by GCV (cell viability, MTT) (HCT-116 cells; listed as Glu-125 HSV-1 TK) | Dose dependent cell killing by GCV (cell viability, MTT) (HCT-116 cells; listed as Glu-125TK) |
| --- | --- | --- | --- | --- | --- | --- | --- | --- | --- |
| Asn-125 | as effective as wild-type HSV-1 TK | proportionally more cell killing | 21 | 11 | 272 | – | – | – | – |
| Gln-125 (WT): wild-type herpes simplex virus type 1 thymidine kinase with glutamine at position 125, parent enzyme [reference compound] | – | – | 22 | 12 | 232 | as effective as wild-type HSV-1 TK | proportionally more cell killing | – | – |
| Glu-125 | – | – | 0 | 0 | 1.6 | – | – | just as sensitive to GCV killing | cell viabilities dropped precipitously |
